Reference: patent EP4721737A1, “USE OF PHARMACEUTICAL COMPOSITION COMPRISING COMPOUND HAVING BIS(AZANYLYLIDENE) SULFONYL STRUCTURE FOR TREATING ANEMIA-RELATED DISEASES” (Scinnohub Pharmaceutical Co., Ltd., priority 2023, dated 2024)

How the values were obtained:
[1] = target: T1, PKR in ex vivo red blood cells from healthy individuals (Homo sapiens, UniProt P30613); assay: ex vivo pyruvate kinase (PKR) activity experiment, red blood cells of healthy individuals; type: cell-based; conditions: 3 hours co-cultivation
T1 construct: endogenous in cells; host or cells: human red blood cells isolated from fresh peripheral blood of healthy individuals
T1 sequence (P30613 whole entry): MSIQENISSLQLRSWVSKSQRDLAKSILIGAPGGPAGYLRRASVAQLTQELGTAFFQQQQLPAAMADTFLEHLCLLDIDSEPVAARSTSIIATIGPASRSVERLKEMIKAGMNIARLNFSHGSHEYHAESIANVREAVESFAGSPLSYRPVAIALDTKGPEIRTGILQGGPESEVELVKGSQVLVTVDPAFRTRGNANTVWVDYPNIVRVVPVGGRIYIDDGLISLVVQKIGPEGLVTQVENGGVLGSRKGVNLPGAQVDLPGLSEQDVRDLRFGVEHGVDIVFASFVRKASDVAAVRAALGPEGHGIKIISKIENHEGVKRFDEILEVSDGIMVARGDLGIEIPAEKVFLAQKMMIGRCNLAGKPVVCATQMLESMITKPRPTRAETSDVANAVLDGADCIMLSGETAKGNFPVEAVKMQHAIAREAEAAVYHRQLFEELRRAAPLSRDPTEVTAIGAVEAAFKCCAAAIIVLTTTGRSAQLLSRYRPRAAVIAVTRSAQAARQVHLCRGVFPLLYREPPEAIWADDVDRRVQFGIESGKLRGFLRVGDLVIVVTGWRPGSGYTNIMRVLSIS
In short: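 Washed, Percoll-purified human RBCs at 1 × 10^7 cells/mL were exposed to compound (final 1–3000 nM, 1% DMSO) for 3 h at 37°C, then lysed. PKR activity in lysate was followed kinetically by fluorescence at 540/590 nm over 1 h. Slope versus 1% DMSO control gave % activation; AC50 from variable-slope fit.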

wild-type mice = assay: in vivo efficacy study in wild-type mice (HGB, ATP, 2,3-DPG in whole blood); conditions: C57BL/6J, whole blood 2-3 hours after last administration; for HGB: vehicle control 14.9; for ATP: vehicle control 452.0; for 2,3-DPG: vehicle control 1727.8
Description: The effects of the compound on wild-type mice were evaluated by detecting the concentrations of HGB, ATP, and 2,3-DPG in the whole blood of mice.
• i. On the day of administration, the compound was weighed, then the vehicle was added to prepare the administration solution: vehicle: 5% DMSO + 10% Solutol + 85% Saline
i. Wild-type mice were randomly divided into groups based on body weight, with 8 mice per group.
• i. Whole blood sample was collected 2-3 hours after the last administration of the test animal for HGB assay.
• i. An LC-MS/MS method was established to determine the ATP and 2,3-DPG contents in whole blood sample 2-3 hours after the last administration of the test animal.

[2] = 2.5 mg/kg oral gavage twice a day 14 days
[3] = 7.5 mg/kg oral gavage twice a day 14 days
[4] = 25 mg/kg oral gavage twice a day 14 days
[5] = 15 mg/kg oral gavage twice a day 14 days
[6] = 50 mg/kg oral gavage twice a day 14 days
[7] = 75 mg/kg oral gavage twice a day 14 days

SMILES	AC50 [1]	HGB (wild-type mice; [2])	ATP (wild-type mice; [2])	2,3-DPG (wild-type mice; [2])	HGB (wild-type mice; [3])	ATP (wild-type mice; [3])	2,3-DPG (wild-type mice; [3])	HGB (wild-type mice; [4])	ATP (wild-type mice; [4])	2,3-DPG (wild-type mice; [4])	HGB (wild-type mice; [5])	ATP (wild-type mice; [5])	2,3-DPG (wild-type mice; [5])	HGB (wild-type mice; [6])	ATP (wild-type mice; [6])	2,3-DPG (wild-type mice; [6])	HGB (wild-type mice; [7])	ATP (wild-type mice; [7])	2,3-DPG (wild-type mice; [7])
N#Cc1ccc(S(=O)(=O)N2CC(=C3CN(C(=O)[C@H](CO)c4ccccc4)C3)C2)cc1 [Compound 65, (S)-4-(1'-(3-hydroxy-2-phenylpropionyl)-1',4'-dihydro-2H,2'H-[3,3'-diazetidinylidene]-1(4H)-ylsulfonyl)benzonitrile]	< 100 nM	15.1 g/dL	481.5 µg/mL	1417.4 µg/mL	14.9 g/dL	486.5 µg/mL	1417.4 µg/mL	14.9 g/dL	475.9 µg/mL	1363.0 µg/mL									
O=C([C@H](CO)c1ccc(F)cc1F)N1CC(=C2CN(S(=O)(=O)c3ccccn3)C2)C1 [Compound 83, (S)-2-(2,4-difluorophenyl)-3-hydroxy-1-(1'-(pyridin-2-ylsulfonyl)-1',4'-dihydro-2H,2'H-[3,3'-diazetidinylidene]-1(4H)-yl)propan-1-one]											15.3 g/dL	476.9 µg/mL	1454.1 µg/mL	15.4 g/dL	472.1 µg/mL	1444.5 µg/mL	14.6 g/dL	474.1 µg/mL	1441.8 µg/mL
